Reference: PubChem BioAssay AID330 (DTP/NCI, 2004)
Where “and” joins values, the source holds several entries; their conditions need not be identical. Equal values may be shown once. Toxic doses and inconclusive results are not listed.

System: P388 leukemia ip, CD2F1 mice, survival T/C
Test: NCI In Vivo Anticancer Drug Screen. Data for tumor model P388 Leukemia (intraperitoneal) in CD2F1 (CDF1) mice
Conditions: endpoint: median survival time, higher = longer survival
Outline: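 Mice carrying the transplanted tumor received test compound or vehicle. Survival was recorded in each group, and the value is the treated-group measurement divided by that of the vehicle-treated control group.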

[1] = dose: 50.0 mg/kg/injection, schedule: Q01DX009 (ip), vehicle: Klucel (hydroxypropylcellulose) (HPC)
[2] = dose: 100.0 mg/kg/injection, schedule: Q01DX009 (ip), vehicle: Klucel (hydroxypropylcellulose) (HPC)
[3] = dose: 200.0 mg/kg/injection, schedule: Q01DX009 (ip), vehicle: Klucel (hydroxypropylcellulose) (HPC)
[4] = dose: 10.0 mg/kg/injection, schedule: Q01DX009 (ip), vehicle: other

## C=C1C(=O)O[C@@H]2C[C@@]3(C)CCC[C@H](C)C3=C[C@H]12 (tested in a mixture with another compound)
dose: 7.5 mg/kg/injection, schedule: Q01DX005 (ip), vehicle: saline + alcohol
  T/C: 93 % of control
dose: 15.0 mg/kg/injection, schedule: Q01DX005 (ip), vehicle: saline + alcohol
  T/C: 94 % of control
dose: 30.0 mg/kg/injection, schedule: Q01DX005 (ip), vehicle: saline + alcohol
  T/C: 103 % of control
dose: 60.0 mg/kg/injection, schedule: Q01DX005 (ip), vehicle: saline + alcohol
  T/C: 100 % of control
dose: 120.0 mg/kg/injection, schedule: Q01DX005 (ip), vehicle: saline + alcohol
  T/C: 104 % of control

## CNC(=S)/C(C(C)=O)=C(\C)Nc1ccccc1
[1]
  T/C: 101 % of control
[2]
  T/C: 106 % of control
[3]
  T/C: 106 % of control

## CN(C)CCSC1=Nc2ccc(Cl)cc2C(c2ccccc2Cl)=NC1
dose: 60.0 mg/kg/injection, schedule: Q01DX005 (ip), vehicle: saline with Tween-80
  T/C: 98 % of control
dose: 60.0 mg/kg/injection, schedule: Q01DX005 (ip), vehicle: saline
  T/C: 99 % of control
dose: 120.0 mg/kg/injection, schedule: Q01DX005 (ip), vehicle: saline with Tween-80
  T/C: 101 % of control
dose: 120.0 mg/kg/injection, schedule: Q01DX005 (ip), vehicle: saline
  T/C: 104 % of control
dose: 240.0 mg/kg/injection, schedule: Q01DX005 (ip), vehicle: saline with Tween-80
  T/C: 105 % of control
dose: 240.0 mg/kg/injection, schedule: Q01DX005 (ip), vehicle: saline
  T/C: 98 % of control

## CC(=O)N(C(C)=O)N1C(=O)C2C3C=CC(C4CC34)C2C1=O (centres undefined)
[1]
  T/C: 92 % of control
[2]
  T/C: 94 % of control

## C=C1C(C2(C)C=CC(=O)OC3(C)COC(=O)CC32)C(OC=O)C(OC(=O)C(O)C(C)CC)C2(C)C(c3ccoc3)CC(OC(C)=O)C12O (centres undefined)
dose: 5.0 mg/kg/injection, schedule: Q01DX005 (ip), vehicle: Klucel (hydroxypropylcellulose) (HPC)
  T/C: 96 % of control
dose: 10.0 mg/kg/injection, schedule: Q01DX005 (ip), vehicle: Klucel (hydroxypropylcellulose) (HPC)
  T/C: 98 % of control and 96 % of control
dose: 20.0 mg/kg/injection, schedule: Q01DX005 (ip), vehicle: Klucel (hydroxypropylcellulose) (HPC)
  T/C: 91 % of control and 95 % of control
dose: 40.0 mg/kg/injection, schedule: Q01DX005 (ip), vehicle: Klucel (hydroxypropylcellulose) (HPC)
  T/C: 95 % of control and 96 % of control
dose: 80.0 mg/kg/injection, schedule: Q01DX005 (ip), vehicle: Klucel (hydroxypropylcellulose) (HPC)
  T/C: 102 % of control
dose: 160.0 mg/kg/injection, schedule: Q01DX005 (ip), vehicle: Klucel (hydroxypropylcellulose) (HPC)
  T/C: 87 % of control

## CS(=O)(=O)OCCN(CCOS(C)(=O)=O)c1cccc(Cl)c1
dose: 1.25 mg/kg/injection, schedule: Q01DX009 (ip), vehicle: other
  T/C: 95 % of control
dose: 2.5 mg/kg/injection, schedule: Q01DX009 (ip), vehicle: other
  T/C: 122 % of control
[4]
  T/C: 186 % of control

## N=C(N)SCc1ccc(C(=O)Oc2ccc([N+](=O)[O-])cc2)cc1
dose: 100.0 mg/kg/injection, schedule: Q04DX003 (ip), vehicle: saline with Tween-80
  T/C: 100 % of control
dose: 200.0 mg/kg/injection, schedule: Q04DX003 (ip), vehicle: saline with Tween-80
  T/C: 104 % of control

## Cc1ccc2c(NCCCCCCCCNc3c4ccccc4nc4c(C)c(C)ccc34)c3ccccc3nc2c1C
[4]
  T/C: 156 % of control

## COc1ccc(C2NC(=S)NC(=O)C2C#N)cc1OC (centres undefined)
[1]
  T/C: 98 % of control
[2]
  T/C: 98 % of control
[3]
  T/C: 95 % of control

## CC(=O)Nc1nncs1
dose: 100.0 mg/kg/injection, schedule: Q04DX003 (ip), vehicle: saline sonified
  T/C: 109 % of control
dose: 200.0 mg/kg/injection, schedule: Q04DX003 (ip), vehicle: saline sonified
  T/C: 90 % of control
dose: 400.0 mg/kg/injection, schedule: Q04DX003 (ip), vehicle: saline sonified
  T/C: 118 % of control

## S=S1CC2(CSSC2)C1.[Cl][Hg][Cl]
dose: 7.5 mg/kg/injection, schedule: Q01DX009 (ip), vehicle: saline
  T/C: 111 % of control
dose: 15.0 mg/kg/injection, schedule: Q01DX009 (ip), vehicle: saline
  T/C: 117 % of control

## Cc1cc(Cl)ccc1NC(=O)C(=O)C(C#N)c1c(Cl)cccc1Cl (centres undefined)
dose: 100.0 mg/kg/injection, schedule: Q04DX002 (ip), vehicle: saline with Tween-80
  T/C: 101 % of control
dose: 200.0 mg/kg/injection, schedule: Q04DX002 (ip), vehicle: saline with Tween-80
  T/C: 105 % of control
dose: 400.0 mg/kg/injection, schedule: Q04DX002 (ip), vehicle: saline with Tween-80
  T/C: 100 % of control
